# Measurements: PMC12152883, “Bile acids inhibit equilibrative adenosine transport to alter adenosine receptor signaling in cholestasis” (The Journal of Biological Chemistry, 2025)
# Experiments:
# [1] = target: T1, ENT3 (Homo sapiens, UniProt Q9BZD2); design: method as in PMID 33623001; conditions: previous studies, cited from earlier work; for Km: read-out: Km of BA transport by ENT3
# T1 construct: plasma membrane–directed ENT3 with a truncated N-terminus (that harbors lysosomal targeting motif); expressed in transfected cells; host or cells: Xenopus laevis oocytes injected with in vitro-transcribed mRNA from pOX-Δ36hENT3
# T1 sequence (Q9BZD2 with tags, fused parts or gaps): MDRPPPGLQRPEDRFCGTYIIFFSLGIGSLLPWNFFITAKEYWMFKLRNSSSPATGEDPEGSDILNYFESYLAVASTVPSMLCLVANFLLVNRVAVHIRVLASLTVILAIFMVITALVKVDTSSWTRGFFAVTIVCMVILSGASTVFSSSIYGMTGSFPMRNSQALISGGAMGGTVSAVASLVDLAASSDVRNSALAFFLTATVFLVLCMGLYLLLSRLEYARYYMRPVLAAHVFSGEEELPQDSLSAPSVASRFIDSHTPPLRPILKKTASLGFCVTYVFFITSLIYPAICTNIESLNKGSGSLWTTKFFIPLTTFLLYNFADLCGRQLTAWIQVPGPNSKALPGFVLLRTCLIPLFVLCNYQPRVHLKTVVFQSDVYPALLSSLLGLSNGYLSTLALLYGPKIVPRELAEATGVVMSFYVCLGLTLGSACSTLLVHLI
# [2] = system: PKA; experiment: PKA activity in CA-treated HeLa cells; assay type: cell-based; conditions: 100 μM CA, 14 h; control 0.27 ± 0.016
# [3] = system: PKC; experiment: PKC activity in CA-treated HeLa cells; assay type: cell-based; conditions: 100 μM CA, 14 h; control 0.01 ± 0.002
# Procedure: (§1) High concentrations of BAs that inhibit ENT-mediated Ado transport could lead to an increase in extracellular Ado levels and therefore impact cell surface AdoR signaling.
# (§2) PKC activity was measured using PKC kinase activity kit (ADI-EKS-420A) purchased from Enzo Biochem. IP3 levels were quantified using an IP3 (Inositol Triphosphate) ELISA Kit (EKF58173) supplied by Biomatik Corporation.
# [4] = system: cAMP; experiment: cAMP levels in CA-treated HeLa cell lysate; assay type: cell-based; conditions: 100 μM CA, 14 h; control 0.96 ± 0.14
# [5] = Cholestatic mouse model: liver CA, 13C-Ado and total Ado by LC/MS-MS; assay type: in vivo; conditions: includes endogenous Ado
# Procedure: We also examined the total Ado content (includes endogenous Ado) in the harvested mouse livers using LC‒MS‒MS.
# Adenosine and ^13C-Ado concentrations were determined in liver tissue samples using a targeted LC‒MS/MS method. The liver samples (∼50 mg) were homogenized with 80% methanol and spiked with 1 μg/ml reserpine as an internal standard. The samples were thoroughly vortexed for 30 s and then centrifuged at 20,000g for 10 min. The supernatant was collected in labeled Eppendorf tubes, and 15 μl of each sample was injected into the LC‒MS/MS system. […] The operational mass spectrometric parameters included a capillary voltage of 4.5 kV; sheath gas of 35 arbitrary units; auxiliary gas of 10 arbitrary units; sweep gas of two arbitrary units; ion transfer tube temperature of 350 °C; vaporizer temperature of 450 °C; dwell time of 50 ms per transition, and collision-induced dissociation gas of 1.5 mTorr. The collision energy was set at 20 V for both Ado and ^13C-Ado, whereas it was set to 38 V for reserpine. Chromatographic separation was performed on a Scherzo SMC18 column (150 × 4.6 mm; 3 μm particle size) from Imtakt. […]
# Two hours after the injection, mouse livers were harvested, and the amount of ^13C-Ado uptake in the liver was quantified via LC–MS-MS. […]
# [6] = system: IP3; experiment: IP3 levels in CA-treated HeLa cells; assay type: cell-based; conditions: 100 μM CA, 14 h; control 0.011 ± 0.0004
# Procedure: as §1, §2
compound,measurement,setting,value
"C[C@H](CCC(=O)O)[C@H]1CC[C@H]2[C@@H]3CC[C@@H]4C[C@H](O)CC[C@]4(C)[C@H]3C[C@H](O)[C@]12C [DCA, deoxycholic acid]",Vmax of BA transport by ENT3,[1],3.4 ± 0.06 pmol/30 min/oocyte
same,Km,[1],270 ± 24.3 µM
"C[C@H](CCC(=O)O)[C@H]1CC[C@H]2[C@@H]3[C@H](O)C[C@@H]4C[C@H](O)CC[C@]4(C)[C@H]3C[C@H](O)[C@]12C [CA, cholic acid]",PKA activity in HeLa cells,[2],0.54 ± 0 U/μg protein
same,Vmax of BA transport by ENT3,[1],3.07 ± 0.04 pmol/30 min/oocyte
same,Km,[1],168 ± 13.3 µM
same,PKC activity in HeLa cells,[3],0.02 ± 0.0001 U/μg protein
same,cAMP levels in total HeLa cell lysate,[4],1.28 ± 0.04 pMol/μg protein
same,reduction in the total Ado level in liver compared with control mice,[5],~12%
same,IP3 levels in HeLa cells,[6],0.023 ± 0.0006 μg/μg protein
